The target of assay [1] is T1, Heat shock factor protein 1 (Mus musculus, UniProt P38532).
T1 sequence (P38532 whole entry): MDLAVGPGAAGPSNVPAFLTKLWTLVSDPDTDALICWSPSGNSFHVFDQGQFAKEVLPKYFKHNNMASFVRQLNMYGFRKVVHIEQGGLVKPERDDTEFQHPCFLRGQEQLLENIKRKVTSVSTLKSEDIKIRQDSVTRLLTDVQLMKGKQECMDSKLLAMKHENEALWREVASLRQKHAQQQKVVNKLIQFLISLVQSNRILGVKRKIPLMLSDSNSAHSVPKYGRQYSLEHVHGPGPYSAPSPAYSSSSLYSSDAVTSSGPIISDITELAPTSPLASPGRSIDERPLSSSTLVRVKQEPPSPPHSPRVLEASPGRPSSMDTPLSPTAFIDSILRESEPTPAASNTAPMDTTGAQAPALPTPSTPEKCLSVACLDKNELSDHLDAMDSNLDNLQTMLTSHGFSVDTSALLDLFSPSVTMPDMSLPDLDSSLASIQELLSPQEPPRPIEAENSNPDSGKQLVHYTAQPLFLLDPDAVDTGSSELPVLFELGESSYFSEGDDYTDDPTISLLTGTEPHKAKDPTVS
As to the kind of experiment: decrease of HSF1-responsive luciferase luminescence – cell-based, NIH3T3, dose retest, confirmation (AID 2382).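 Further: NIH3T3 fibroblasts with HSF1-driven luciferase reporter stressed by proteasome inhibitor MG132; luminescence from HSF1-driven luciferase expression after 8 hours of MG132 stress.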 The format is functional.

Assay [2] in a line: viability of uninfected HEp-2 cells – cell-based, HTS, cytotoxicity control for RSV inhibitor project, dose response (AID 2410). The format is functional. The settings on record: human respiratory syncytial virus.
For assay [3], the system named is H4. Put plainly: Luminescence Cell-Based Dose Response HTS to Identify Activators of 5'UTR Stem-Loop Driven Prion Protein mRNA Translation in H4 Neuroglioblastoma Cells. [Related pubchem assays: 1829 (Project Summary), 1814 (Primary HTS)]. The format is functional. The settings on record: Homo sapiens.
Assay [4] can be described thus: Luminescence Cell-Based Dose Response HTS to Identify Activators of Luciferase Translation or Activity in H4 […] Cells. [Related pubchem assays: 1829 (Project Summary), 1814 (Primary HTS)]. In kind it is functional.
Assay [5] deals with T2, Cytochrome P450 1A2 (Homo sapiens, UniProt P05177).
T2 sequence (P05177 whole entry): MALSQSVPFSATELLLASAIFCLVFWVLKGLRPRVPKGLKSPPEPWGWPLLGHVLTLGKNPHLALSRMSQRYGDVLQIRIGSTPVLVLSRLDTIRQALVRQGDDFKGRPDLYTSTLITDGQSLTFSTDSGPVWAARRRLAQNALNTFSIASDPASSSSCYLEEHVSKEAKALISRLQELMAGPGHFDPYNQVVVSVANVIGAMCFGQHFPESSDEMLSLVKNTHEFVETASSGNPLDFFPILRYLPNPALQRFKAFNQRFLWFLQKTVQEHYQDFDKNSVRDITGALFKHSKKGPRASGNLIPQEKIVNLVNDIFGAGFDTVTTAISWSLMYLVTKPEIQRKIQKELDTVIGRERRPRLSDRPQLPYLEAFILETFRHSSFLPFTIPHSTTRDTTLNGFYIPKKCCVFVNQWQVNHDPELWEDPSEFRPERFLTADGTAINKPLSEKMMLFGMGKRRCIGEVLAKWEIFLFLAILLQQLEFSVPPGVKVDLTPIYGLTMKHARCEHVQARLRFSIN

Assay [6] addresses Cytochrome P450 3A4 (Homo sapiens, UniProt P08684).
In assay [7] the target is Cytochrome P450 2C19 (Homo sapiens, UniProt P33261). As to the kind of experiment: Cytochrome panel assay with activity outcomes. Panel member name: p450-cyp2c19 Compounds with AC50 equal or less than 10 uM are considered active. In kind it is functional. The settings on record: read-out: AC50.
In assay [8] the target is Cytochrome P450 2D6 (Homo sapiens, UniProt P10635).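 Further: CYP2D6 member of a cytochrome P450 panel assay.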
Assay [9] concerns the target Cytochrome P450 2C9 (Homo sapiens, UniProt P11712).

Molecules are shown by their SMILES. Activity calls are given as the source filed them. Where only a bound is given, the exact number is not on record here.

In ChEMBL document CHEMBL1201862, “PubChem BioAssay data set” (2004) one finds EC50, CC50 and AC50 data, which are given here for 44 molecules.

Cytochrome P450 3A4, sequence (P08684 whole entry): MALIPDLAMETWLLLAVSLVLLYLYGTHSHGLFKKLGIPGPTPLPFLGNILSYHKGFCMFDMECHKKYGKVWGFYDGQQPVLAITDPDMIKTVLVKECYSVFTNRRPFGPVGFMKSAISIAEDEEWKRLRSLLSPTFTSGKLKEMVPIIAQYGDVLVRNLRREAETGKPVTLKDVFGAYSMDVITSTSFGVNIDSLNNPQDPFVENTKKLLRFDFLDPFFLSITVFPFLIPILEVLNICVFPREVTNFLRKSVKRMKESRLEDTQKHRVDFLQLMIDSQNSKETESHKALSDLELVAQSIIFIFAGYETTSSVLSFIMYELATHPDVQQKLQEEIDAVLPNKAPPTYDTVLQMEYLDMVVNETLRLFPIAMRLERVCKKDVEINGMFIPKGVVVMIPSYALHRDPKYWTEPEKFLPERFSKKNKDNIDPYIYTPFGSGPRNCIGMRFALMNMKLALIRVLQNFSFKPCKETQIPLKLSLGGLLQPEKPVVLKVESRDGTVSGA
Cytochrome P450 2C9, sequence (P11712 whole entry): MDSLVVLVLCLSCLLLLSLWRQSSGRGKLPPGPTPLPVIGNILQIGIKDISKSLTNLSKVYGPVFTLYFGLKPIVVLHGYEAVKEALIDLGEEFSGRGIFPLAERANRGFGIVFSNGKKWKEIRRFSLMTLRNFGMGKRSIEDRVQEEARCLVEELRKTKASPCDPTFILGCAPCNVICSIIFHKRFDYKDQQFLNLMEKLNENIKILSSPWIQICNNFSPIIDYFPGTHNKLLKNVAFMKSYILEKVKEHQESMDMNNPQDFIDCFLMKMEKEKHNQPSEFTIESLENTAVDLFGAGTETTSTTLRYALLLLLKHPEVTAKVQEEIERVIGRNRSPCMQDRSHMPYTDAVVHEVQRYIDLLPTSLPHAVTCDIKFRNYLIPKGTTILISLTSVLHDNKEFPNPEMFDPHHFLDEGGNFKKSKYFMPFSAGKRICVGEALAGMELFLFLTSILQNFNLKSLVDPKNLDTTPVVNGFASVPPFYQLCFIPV
Cytochrome P450 2C19, sequence (P33261 whole entry): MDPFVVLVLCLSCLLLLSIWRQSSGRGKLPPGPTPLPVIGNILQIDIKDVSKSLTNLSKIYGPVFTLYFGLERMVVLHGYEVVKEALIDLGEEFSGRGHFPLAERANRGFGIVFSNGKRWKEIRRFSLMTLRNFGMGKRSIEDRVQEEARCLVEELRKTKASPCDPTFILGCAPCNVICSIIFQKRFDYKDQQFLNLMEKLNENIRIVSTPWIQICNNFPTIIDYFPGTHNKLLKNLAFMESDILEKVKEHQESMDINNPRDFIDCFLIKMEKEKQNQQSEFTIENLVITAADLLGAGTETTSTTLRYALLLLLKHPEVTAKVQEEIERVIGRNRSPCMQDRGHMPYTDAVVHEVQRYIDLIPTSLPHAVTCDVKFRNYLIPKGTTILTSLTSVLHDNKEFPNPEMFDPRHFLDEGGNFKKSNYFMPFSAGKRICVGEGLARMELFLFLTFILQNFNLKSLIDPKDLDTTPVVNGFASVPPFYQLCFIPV
Cytochrome P450 2D6, sequence (P10635 whole entry): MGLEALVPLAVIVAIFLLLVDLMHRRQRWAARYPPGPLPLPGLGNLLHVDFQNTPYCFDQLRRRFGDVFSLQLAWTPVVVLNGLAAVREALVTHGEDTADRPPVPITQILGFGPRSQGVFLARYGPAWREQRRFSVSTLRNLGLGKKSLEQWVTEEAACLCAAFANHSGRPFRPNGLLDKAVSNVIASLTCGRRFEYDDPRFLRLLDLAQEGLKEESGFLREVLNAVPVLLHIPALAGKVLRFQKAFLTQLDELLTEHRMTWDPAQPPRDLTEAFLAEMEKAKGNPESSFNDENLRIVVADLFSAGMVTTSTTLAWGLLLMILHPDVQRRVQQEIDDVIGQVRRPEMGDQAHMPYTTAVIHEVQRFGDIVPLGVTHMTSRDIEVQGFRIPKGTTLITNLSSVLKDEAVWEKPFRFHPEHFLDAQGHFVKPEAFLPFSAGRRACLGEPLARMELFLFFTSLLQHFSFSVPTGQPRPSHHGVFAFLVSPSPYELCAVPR

For the molecule `O=C(OCC(=O)N1CCN(C(=O)c2ccco2)CC1)c1sc2cc(F)ccc2c1Cl`, the EC50 in [1] is reported as > 195 µM (not active). On to `CC(C)(C)Nc1nc(-c2ccc3c(c2)CCN3C(=O)C2CC2)cs1`, for which, in assay [2], the CC50 is 25.2 µM (active).

`O=C(c1ccc(F)cc1)N1CCCC(N2CCN(Cc3ccc4c(c3)OCO4)CC2)C1` (centres undefined): the EC50 in assay [1] is reported as > 195 µM (not active). Turning to `O=C(CN1CCC(n2nnc3ccccc32)CC1)Nc1ccc2c(c1)CCC2`, the CC50 in [2] is 49.5 µM (active). For `N#CC1=C2SC=C(c3ccc(Br)cc3)N2CCCC1=O`, the results for the EC50 in assay [3] and in assay [4] were 16.9 µM (active) and 864 nM (active), respectively. For the molecule `COc1cccc(COC(=O)c2ccc3c(c2)NC(=O)C(C)S3)c1OC` (centres undefined), in assay [1], the EC50 is > 195 µM (not active).

`C[C@]1(c2ccccc2)OC(C(=O)O)=CC1=O`: the half-maximal activity concentration (AC50) in assay [5] is 39.8 µM (inconclusive). Consider `CC(C)(C)OC(=O)COc1cc(O)c2c(=O)cc(-c3ccccc3)oc2c1`, for which the EC50 in assay [1] is > 195 µM (not active).

Consider `CO[C@H]1[C@H](O[C@H]2O[C@@H](C)[C@@H](O[C@@H]3C[C@](C)(O)[C@H](OC(=O)CC(C)C)[C@H](C)O3)[C@@H](N(C)C)[C@@H]2O)[C@@H](CC=O)C[C@@H](C)[C@@H](O)/C=C\C=C/C[C@@H](C)OC(=O)C[C@H]1OC(C)=O`, for which the AC50 in assay [6] is 12.6 µM (inconclusive).

In the case of `O=C1OC(N2CCN(C/C=C/c3ccccc3)CC2)c2ccccc21` (centres undefined), the EC50 in assay [1] was > 195 µM (not active).

As for `COC(=O)[C@@]1(Cc2ccc(F)cc2)[C@H]2c3cc(C(=O)N4CCCC4)n(Cc4c(CO)ncc(C)c4O)c3C[C@H]2CN1C(=O)c1ccccc1`, the AC50 in [5] is 20 µM (inconclusive); in assay [7], 39.8 µM (inconclusive). On to `N#Cc1nc(-c2ccco2)oc1N1CCN(Cc2ccccc2)CC1`, for which the concentration giving a half-maximal response (EC50) in [1] is given as > 195 µM (not active). On to `Cn1c(SCC(=O)NCc2ccccc2)nc2ccccc21`, for which the EC50 in assay [1] is reported as > 195 µM (not active).

Take `O=c1c(-c2cccc(Cl)c2)nc2cncnc2n1Cc1ccccc1Cl`: the AC50 is 15.8 µM (inconclusive) in [8] and 12.6 µM (inconclusive) in assay [6]. `COC(=O)c1cccc(NC(=O)CCCOc2ccccc2)c1`: in assay [6], the AC50 is 12.6 µM (inconclusive).

With `Cc1ccc(NC(=O)NCC(c2cccnc2)N2CCOCC2)cc1` (centres undefined), the EC50 in assay [1] is reported as > 195 µM (not active). Consider `COCC(=O)N1CCC2(CCCN(c3ccccc3)C2)CC1`, for which the AC50 in assay [6] is 7.94 µM (inconclusive). With `CN(C)c1ncc2nc(-c3cccs3)c(=O)n(CCc3ccccc3)c2n1`, the AC50 in assay [5] is 5.01 µM (inconclusive). With `Cc1cccc(N(C)C(=O)c2cc3cc4ccc(C)cc4nc3o2)c1`, the EC50 was 14.3 µM (active) in assay [3] and 1690 nM (active) in assay [4]. Regarding `COc1ccc(C2SCC(=O)Nc3c2c(C)nn3C2CCOC(C)(C)C2)cc1` (centres undefined), the AC50 in assay [6] was 28.2 µM (inconclusive); in assay [9] it was 25.1 µM (inconclusive); in [7] it was 39.8 µM (inconclusive). With `Cc1ccccc1Cn1c(Cc2ccccc2)nc2ccccc21`, the AC50 in assay [8] is 31.6 µM (inconclusive); in assay [6] it was 31.6 µM (inconclusive); in [5], 17.8 µM (inconclusive). Regarding `Cc1ccccc1N(C(=O)Cn1nnc(-c2cccs2)n1)C(C(=O)NCCC(C)C)c1ccco1` (centres undefined), the CC50 in [2] is 40.4 µM (active). For the molecule `Cc1noc(C)c1C(=O)N1CCC2(CC1)CCN(c1ccncc1)CC2`, the AC50 is 12.6 µM (inconclusive) in assay [8] and 3.98 µM (inconclusive) in assay [6]. For `Nc1nc(O)c(Br)c(Oc2ccc(F)cc2)n1`, in [1], the EC50 was 35.4 µM (active). The same measure, in the same setting: for `COc1ccc(NC(=O)CSc2nc(C)cs2)cc1` the value was > 195 µM (not active).

For the molecule `CN(CCC#N)C(=O)c1ccc(CNS(=O)(=O)c2ccc(F)cc2)cc1`, the AC50 in [6] is 0.112 µM (inconclusive); in [5], 2 µM (inconclusive); in assay [9], 10 µM (inconclusive). Turning to `Nc1ccc(C#Cc2c(-c3ccsc3)oc3ccc(N4CCOCC4)cc23)cc1`, the CC50 in assay [2] was 31.5 µM (active). Regarding `CN(C)c1ncc2nc(-c3cccc(C#N)c3)c(=O)n(C[C@H]3CCCO3)c2n1`, the AC50 was 2.51 µM (inconclusive) in assay [8] and 3.16 µM (inconclusive) in assay [5]. As to `CC(C)CC(C(=O)OCC(=O)Nc1ncc(Cl)cc1Cl)N1C(=O)c2ccccc2C1=O` (centres undefined), the concentration at half-maximal activity (AC50) in assay [6] was 31.6 µM (inconclusive); in assay [5] it was 11.2 µM (inconclusive). Consider `C[C@H](CN(C)C)C(C#N)(c1ccccc1)c1ccccc1`, for which the AC50 in [8] was 3.16 µM (inconclusive); in [6] it was 3.98 µM (inconclusive).

Regarding `COc1ccc(-c2nc(CNS(=O)(=O)c3ccc(OC)c(OC)c3)cs2)cc1`, in assay [1], the EC50 is > 195 µM (not active). With `CCC(=O)Nc1ccc(NC(=O)Cc2ccccc2)cn1`, the EC50 in assay [1] is listed as > 195 µM (not active).

Consider `COc1ccc(-c2cc(C(=O)Nc3cc(OC)c(OC)c(OC)c3)no2)cc1OC`, for which the figures for the AC50 in assay [6] and in assay [7] were 10 µM (inconclusive) and 39.8 µM (inconclusive), respectively. As for `COc1ccc(NC(=O)NCc2cccn2C)c(OC)c1`, the concentration at half-maximal activity (AC50) in [8] is 0.501 µM (inconclusive); in [6], 22.4 µM (inconclusive).

For `O=C(COc1ccc2ccccc2c1)N1c2ccccc2Sc2ccccc21`, the CC50 in assay [2] is 26.8 µM (active).

For `Fc1ccc(C2CC(c3ccco3)=NN2c2ccccc2)cc1` (centres undefined), in assay [6], the AC50 is 0.0251 µM (inconclusive). The same measure, in the same setting: for `O=c1c(-c2ccccc2)nc2cnc(N3CCOCC3)nc2n1C[C@H]1CCCO1` the value was 39.8 µM (inconclusive). In the case of `COc1ccc(-c2nc(C#N)c(N3CCC(C(N)=O)CC3)o2)cc1OC`, the half-maximal activity concentration (AC50) in assay [6] is 39.8 µM (inconclusive); in assay [5], 12.6 µM (inconclusive); in assay [7], 22.4 µM (inconclusive).

In the case of `CSc1nc(C)cc(SC(C(C)=O)C(=O)Nc2ccccc2)n1` (centres undefined), the results for the AC50 in assay [6], in [5] and in assay [9] were 14.1 µM (inconclusive), 15.8 µM (inconclusive) and 1.58 µM (inconclusive), respectively.

Consider `O=C(N/N=C/c1cccnc1)c1ccc2c(c1)OCCO2`, for which the EC50 in assay [1] is > 195 µM (not active). As to `C/C(=N\NC(=O)COc1ccc(C)cc1C(C)C)c1ccc(-n2ccnc2)cc1`, in assay [2], the CC50 is 24.3 µM (active). `COC(=O)c1ccc(/C=N\NC(=O)c2ccc(C)cc2Cl)cc1`: the AC50 in [5] was 10 µM (inconclusive). The same measure, in the same setting: for `CC1(C)N(O)C(c2ccc(C(=O)O)cc2)=[N+]([O-])C1(C)C` the value was 31.6 µM (inconclusive).

Consider `CCOC(=O)c1ccc(NC(=O)NS(=O)(=O)c2ccc(C)cc2)cc1`, for which, in assay [1], the EC50 is > 195 µM (not active).
